Results on twelve molecules are retold here after paper PMC9681820, “A PDE10A inhibitor CPL500036 is a novel agent modulating striatal function devoid of most neuroleptic side-effects” (Frontiers in Pharmacology, 2022).

The subject of data set [1] is Escherichia coli WP2 uvrA. In words: Ames test. The conditions noted are these: CPL500036 5000µg/plate, n=3. A general note: In the Ames test, an excess of revertant colonies over the control signals mutagenicity.
The subject of data set [2] is cardiac 3D spheroids (cardiomyocytes and fibroblasts derived from human pluripotent cells). As to the kind of experiment: Cardiotoxicity in spontaneously beating cardiac 3D spheroids. The conditions noted are these: 3D cardiac spheroids; for AC50: Homo sapiens. The class given is cell-based. As to the method: The cardiotoxic effect of CPL500036 was evaluated in spontaneously beating cardiac 3D spheroids (comprising cardiomyocytes and fibroblasts derived from human pluripotent cells) by Cyprotex (Cheshire, United Kingdom). Experiments were carried out in accordance with the service-provider’s protocol. Specific parameters of cell health were assessed: number and size of spheroids, DNA structure, intracellular level of calcium ions, mitochondrial mass, membrane potential and cellular ATP. […] During the 14 days of the experiment, redosing occurred on three occasions. Spheroid hypertrophy was measured on days 3, 7, 10, and 14 using the “brightfield live cellular imaging” mode of a Cellomics ArrayScan® XTI system (Thermo Scientific, Waltham, MA, United States). On day-14, the spheroid model was analyzed using the confocal mode of Cellomics ArrayScan XTI following incorporation of appropriate fluorescent dyes. Subsequently, cellular ATP content was measured using CellTiterGlo® (Promega, Fitchburg, WI, United States). Mitomicyn C and dasatinib were used as positive controls (Supplementary Table S1).
concentration at which 50% maximum effect is observed for each cell health parameter; NR - No response observed.

For data set [3], the system named is Salmonella typhimurium TA98. In words: Ames test. The conditions noted are these: CPL500036 5000µg/plate, n=3.
In data set [4] the test system is Salmonella typhimurium TA1537. In words: Ames test. The conditions noted are these: CPL500036 5000µg/plate, n=3.
Data set [5] concerns Salmonella typhimurium TA1535. The conditions noted are these: CPL500036 5000µg/plate, n=3.
Data set [6] concerns Salmonella typhimurium TA100. The conditions noted are these: CPL500036 5000µg/plate, n=3.
A further data set addresses PDE10A (Homo sapiens, UniProt Q9Y233). The arrangement: method as in ref Schmidt et al., 2008; Grauer et al., 2009; Harada et al., 2015. The conditions noted are these: ref Schmidt et al., 2008; Grauer et al., 2009; Harada et al., 2015; read-out: IC50 against PDE10A; cited from earlier work.
The next data set deals with Sprague–Dawley rats. In words: Hyperprolactinemia: plasma prolactin before and 2 h after administration. Type of data set: in vivo. The conditions noted are these: 3 mg/kg, p.o., n = 4. As for the experimental part:
Four male Sprague–Dawley rats (∼10 weeks; Mossakowski Medical Research Institute, Polish Academy of Sciences, Warsaw, Poland), underwent gavage with CPL500036 (3 mg/kg), haloperidol (3 mg/kg; as a positive control) or vehicle. Rats were fasted for 16 h before administration. Blood samples from the tail vein were collected immediately before and 2 h after administration. Plasma was obtained by centrifugation (1,600 × g, 20 min, 4°C) of blood samples collected on K2EDTA, and was stored at −80°C until analyses. The prolactin concentration in plasma samples was determined using the Prolactin (rat) EIA kit (Bertin Rockville, MD, United States) according to the manufacturer’s protocol. The prolactin concentration difference was assessed as follows: %∆prolactin=cprolactin, 2h−cprolactin, 0h/[…] (1)

Details of data set [7]: method as in ref Megens A. A. H. P. et al., 2014; Suzuki et al., 2015; Arakawa et al., 2016. The conditions noted are these: compared with marketed antipsychotics; ref Megens A. A. H. P. et al., 2014; Suzuki et al., 2015; Arakawa et al., 2016; cited from earlier work.
Where [8] appears, read: read-out: Mitochondrial mass AC50.
Where [9] appears, read: read-out: Mitochondrial membrane potential AC50.
Setting [10] is: With metabolic activation (+S9 mix), 2AA 2µg/plate.
[11] abbreviates: Without metabolic activation (-S9 mix), 9AA 50µg/plate.
Setting [12] is: Without metabolic activation (-S9 mix), SAZ 2µg/plate.
The mark [13] stands for this setting: Without metabolic activation (-S9 mix), NPD 4µg/plate.

Each structure is given as a SMILES string. Like-named read-outs stand apart in the source and are kept apart here. Where only a bound is given, the exact number is not on record here.

Sequence of PDE10A (Q9Y233 whole entry, species assumed): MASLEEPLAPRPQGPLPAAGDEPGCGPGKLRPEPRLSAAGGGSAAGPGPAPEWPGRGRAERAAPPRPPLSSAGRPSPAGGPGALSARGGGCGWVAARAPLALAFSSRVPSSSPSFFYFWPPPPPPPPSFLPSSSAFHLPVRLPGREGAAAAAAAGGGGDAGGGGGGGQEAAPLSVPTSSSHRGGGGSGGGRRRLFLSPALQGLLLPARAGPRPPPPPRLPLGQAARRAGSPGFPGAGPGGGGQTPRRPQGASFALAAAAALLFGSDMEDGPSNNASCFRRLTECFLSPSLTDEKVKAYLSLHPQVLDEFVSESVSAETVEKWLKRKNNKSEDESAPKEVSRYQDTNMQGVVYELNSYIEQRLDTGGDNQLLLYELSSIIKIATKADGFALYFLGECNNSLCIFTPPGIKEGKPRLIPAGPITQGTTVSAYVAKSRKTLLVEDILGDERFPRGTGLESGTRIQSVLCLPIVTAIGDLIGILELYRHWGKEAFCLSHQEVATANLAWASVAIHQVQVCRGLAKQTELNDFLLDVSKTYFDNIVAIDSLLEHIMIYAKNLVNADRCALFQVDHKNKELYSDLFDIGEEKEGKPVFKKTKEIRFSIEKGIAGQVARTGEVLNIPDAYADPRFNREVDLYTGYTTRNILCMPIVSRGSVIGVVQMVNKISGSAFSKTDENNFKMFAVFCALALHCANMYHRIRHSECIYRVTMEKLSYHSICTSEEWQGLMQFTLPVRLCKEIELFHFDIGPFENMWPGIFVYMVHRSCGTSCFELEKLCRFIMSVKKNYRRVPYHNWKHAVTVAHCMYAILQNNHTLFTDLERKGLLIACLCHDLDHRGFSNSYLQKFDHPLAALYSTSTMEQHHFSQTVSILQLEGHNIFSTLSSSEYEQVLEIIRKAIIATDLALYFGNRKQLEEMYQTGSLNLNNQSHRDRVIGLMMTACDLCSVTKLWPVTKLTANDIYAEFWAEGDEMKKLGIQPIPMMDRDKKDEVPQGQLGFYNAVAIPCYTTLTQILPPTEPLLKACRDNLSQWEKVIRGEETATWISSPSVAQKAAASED

For `COS(C)(=O)=O` [MMS, Methyl methanesulfonate, reference compound], in data set [1] (Without metabolic activation (-S9 mix), MMS 2µg/plate), the Mutation rate was 33.85.

On to `CO[C@@]12[C@H](COC(N)=O)C3=C(C(=O)C(C)=C(N)C3=O)N1C[C@@H]1N[C@@H]12` [Mitomycin C], for which, in data set [2], the “Calcium MEC” value is listed as 79.1 µM, the “Cellular ATP MEC” value turned out to be 0.243 µM, the “DNA structure MEC” value came to 0.704 µM and the “Mitochondrial mass MEC” value was less than 0.04 µM. For the same molecule, in [2], the “Mitochondrial membrane potential MEC” value is 1.89 µM, the “Spheroid count MEC” value is 2 µM and the “Spheroid size MEC” value came out at 2.97 µM. Further, in data set [2] (read-out: Calcium AC50), the AC50 (usually the midpoint of the concentration-response curve, whichever way the signal moves) was more than 100 µM. Also, the AC50 in data set [2] (read-out: Cellular ATP AC50) came out at 0.766 µM. Further, in data set [2] (read-out: DNA structure AC50), the AC50 turned out to be 4.41 µM. In addition, the AC50 in data set [2] (setting [8]) came out at 0.731 µM. Also, in data set [2] (setting [9]), the AC50 was found to be 3.88 µM. The AC50 in data set [2] (read-out: Spheroid size AC50) was more than 100 µM.

Take `Nc1ccc2cc3ccccc3cc2c1` [2AA, 2-aminoanthracene, reference compound]: the Mutation rate in data set [3] (setting [10]) was found to be 84.13; in data set [1] (setting [10]), 8.49; in data set [4] (setting [10]), 9.0; in data set [5] (setting [10]) it was 11.38; in [6] (setting [10]) it was 19.26. Also, the “Revertants Mean±SD” value in [3] (setting [10]) turned out to be 1682.7±156.02; in data set [1] (setting [10]), 203.7±3.79; in [4] (setting [10]), 78.0±7.94; in data set [5] (setting [10]), 159.3±15.57; in data set [6] (setting [10]) it was 1464.0±361.88.

Consider `FC(F)(F)Cn1cc(-c2ccncc2)c(-c2ccc(OCc3ccc4ccccc4n3)cc2)n1` [TP-10], for which, at PDE10A, the concentration for half-maximal inhibition (IC50) (in general, the concentration needed to halve the response being measured) is 0.0003 µM.

With `O=C(CCCN1CCC(O)(c2ccc(Cl)cc2)CC1)c1ccc(F)cc1` [Haloperidol], the “prolactin release (relative change in the prolactin level before and 2 h after administration)” value with Sprague–Dawley rats was “induced significant prolactin release”.

With `COc1cn(-c2ccc(-n3cccn3)cc2F)nc(-c2ccnn2-c2ccccc2)c1=O` [TAK-063], in data set [7], the cataleptic effect entry was “weaker than that for marketed antipsychotics and did not increase with increasing dose”.

For the molecule `Cc1nc(Nc2ncc(C(=O)Nc3c(C)cccc3Cl)s2)cc(N2CCN(CCO)CC2)n1` [Dasatinib], in data set [2], the “Calcium MEC” value is 43.0 µM. The “Cellular ATP MEC” value in [2] is reported as 0.075 µM. Further, the “DNA structure MEC” value in data set [2] is 2.92 µM. In [2], the “Mitochondrial mass MEC” value amounted to 2.43 µM. In addition, in data set [2], the “Mitochondrial membrane potential MEC” value stood at 16.82 µM. Further, in data set [2], the “Spheroid size MEC” value was determined as 0.469 µM. Besides, the AC50 in data set [2] (read-out: Calcium AC50) is more than 50 µM; in data set [2] (read-out: Cellular ATP AC50), 0.374 µM; in data set [2] (read-out: DNA structure AC50), more than 50 µM; in [2] (setting [8]), more than 5 µM; in data set [2] (setting [9]), 26.4 µM; in [2] (read-out: Spheroid count AC50), more than 50 µM. The AC50 in data set [2] (read-out: Spheroid size AC50) amounted to 23.4 µM.

`Nc1c2ccccc2nc2ccccc12` [9AA, 9-Aminoacridine, reference compound]: in [4] (setting [11]), the Mutation rate came to 50.65 and the “Revertants Mean±SD” value came out at 287.0±65.60.

In the case of `[N-]=[N+]=[N-].[Na+]` [SAZ, Sodium Azide, reference compound], in [5] (setting [12]), the Mutation rate came out at 74.21 and the “Revertants Mean±SD” value worked out at 940.0±91.95. In addition, in data set [6] (setting [12]), the Mutation rate came to 12.76 and the “Revertants Mean±SD” value was determined as 1093.0±64.66.

Regarding `Nc1ccc([N+](=O)[O-])cc1N` [NPD, 4-Nitro-1,2-phenylenediamine, reference compound], in data set [3] (setting [13]), the Mutation rate is given as 18.6 and the “Revertants Mean±SD” value is on record as 335.0±57.51.

Consider `Cc1ncc(C)n2nc(/C=C/c3nc(N4CCCC4)cc(N4CCOCC4)n3)nc12` [PDM-042, (E )-4-(2-(2-(5,8-dimethyl-[1,2, 4]triazolo[1,5-a]pyrazin-2-yl)vinyl)-6-(pyrrolidin-1-yl)pyrimidin-4-yl)morpholine], for which the cataleptic effect entry in data set [7] is “weaker than that for marketed antipsychotics and did not increase with increasing dose”.

With `COCCc1ccc(-c2c(C)nc3c(N4CCOCC4)nccn23)cn1` [JNJ-42314,415], the cataleptic effect result in [7] is “weaker than that for marketed antipsychotics and did not increase with increasing dose”.
